Data reported in ChEMBL document CHEMBL3045128, “Borrelidin, a potent antifungal agent: insight into the antifungal mechanism against Phytophthora sojae” (J Agric Food Chem, 2012).
pIC50, pKi: −log10 of the molar value. ≈ marks a conversion by molar mass, not a printed value. Calls of active or inactive are those of the source. The calls are words filed in the database; no cut-off is given here.

Key:
[1] = biological target: T1, Threonyl-tRNA synthase (Phytophthora sojae) (UniProt G3FIN0); experiment: Binding affinity to C-terminal His6-tagged Phytophthora sojae race 1 recombinant ThrRS expressed in Escherichia coli BL21 (Codonplus DE3) assessed as decrease in beta sheet content of the protein at protein to compound ratio of 1:1 by CD spectroscopy (reference value: 25.6%); design: scale not given: the % may be the effect or the level left
T1 sequence (whole entry): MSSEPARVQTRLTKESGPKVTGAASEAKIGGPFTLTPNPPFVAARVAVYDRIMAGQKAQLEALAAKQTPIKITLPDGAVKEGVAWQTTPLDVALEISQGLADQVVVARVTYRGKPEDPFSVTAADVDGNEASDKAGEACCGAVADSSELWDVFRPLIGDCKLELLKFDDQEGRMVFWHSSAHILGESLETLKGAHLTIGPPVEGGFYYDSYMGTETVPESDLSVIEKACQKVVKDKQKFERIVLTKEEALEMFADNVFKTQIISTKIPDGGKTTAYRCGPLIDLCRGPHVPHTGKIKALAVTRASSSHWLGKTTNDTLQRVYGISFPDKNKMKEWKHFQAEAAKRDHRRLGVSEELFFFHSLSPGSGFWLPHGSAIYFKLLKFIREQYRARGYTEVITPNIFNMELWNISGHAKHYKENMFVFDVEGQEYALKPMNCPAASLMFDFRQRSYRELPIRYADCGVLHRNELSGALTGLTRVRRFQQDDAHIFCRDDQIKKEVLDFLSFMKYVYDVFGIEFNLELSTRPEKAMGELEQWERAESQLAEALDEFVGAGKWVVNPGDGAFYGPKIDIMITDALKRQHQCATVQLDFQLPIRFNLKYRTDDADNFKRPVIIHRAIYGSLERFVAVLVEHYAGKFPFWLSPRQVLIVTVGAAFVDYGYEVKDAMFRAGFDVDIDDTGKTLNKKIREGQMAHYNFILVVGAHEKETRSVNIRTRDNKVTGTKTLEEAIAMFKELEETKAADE

[2] = biological target: T1, Threonyl-tRNA synthase (Phytophthora sojae); experiment: Binding affinity to C-terminal His6-tagged Phytophthora sojae race 1 recombinant ThrRS expressed in Escherichia coli BL21 (Codonplus DE3) assessed as increase in alpha helicity of the protein at protein to compound ratio of 1:1 by CD spectroscopy (reference value: 18.3%)
Threonyl-tRNA synthase = biological target: T2, Threonyl-tRNA synthase (Phytophthora sojae, UniProt G3FIN0); experiment: Inhibition of C-terminal His6-tagged Phytophthora sojae race 1 recombinant ThrRS expressed in Escherichia coli BL21 (Codonplus DE3) assessed as reduction in initial velocity at the step of threonine activation preincubated for 10 min with 4 uM enzyme before threonine addition measured after 30 min by HPLC analysis
T2 sequence (G3FIN0 whole entry): T1 sequence (whole entry)

[3] = biological target: T1, Threonyl-tRNA synthase (Phytophthora sojae); experiment: Binding affinity to C-terminal His6-tagged Phytophthora sojae race 1 recombinant ThrRS expressed in Escherichia coli BL21 (Codonplus DE3) assessed as Stern-Volmer quenching constant at 37 degC by fluorescence spectroscopy
[4] = biological target: T1, Threonyl-tRNA synthase (Phytophthora sojae); experiment: Binding affinity to C-terminal His6-tagged Phytophthora sojae race 1 recombinant ThrRS expressed in Escherichia coli BL21 (Codonplus DE3) assessed as quenching rate constant at 47 degC by fluorescence spectroscopy
Phytophthora sojae [5] = experiment: Antifungal activity against Phytophthora sojae race 1 assessed as radial growth inhibition at 0.006 ug/ml incubated at 28 degC in the dark for 6 to 8 days in presence of 0.6 mM threonine; type: functional, organism-based
Phytophthora sojae [6] = experiment: Antifungal activity against Phytophthora sojae race 1 assessed as radial growth inhibition at 0.008 ug/ml incubated at 28 degC in the dark for 6 to 8 days in presence of 0.2 to 0.6 mM alanine; type: functional, organism-based
[7] = biological target: T1, Threonyl-tRNA synthase (Phytophthora sojae); experiment: Binding affinity to C-terminal His6-tagged Phytophthora sojae race 1 recombinant ThrRS expressed in Escherichia coli BL21 (Codonplus DE3) at 20 to 200 uM at 27 to 47 degC after 30 min by fluorescence quenching assay
[8] = biological target: T1, Threonyl-tRNA synthase (Phytophthora sojae); experiment: Binding affinity to C-terminal His6-tagged Phytophthora sojae race 1 recombinant ThrRS expressed in Escherichia coli BL21 (Codonplus DE3) assessed as quenching rate constant at 37 degC by fluorescence spectroscopy
[9] = biological target: T1, Threonyl-tRNA synthase (Phytophthora sojae); experiment: Binding affinity to C-terminal His6-tagged Phytophthora sojae race 1 recombinant ThrRS expressed in Escherichia coli BL21 (Codonplus DE3) assessed as static fluorescence quenching by FRET analysis
[10] = biological target: T1, Threonyl-tRNA synthase (Phytophthora sojae); experiment: Binding affinity to C-terminal His6-tagged Phytophthora sojae race 1 recombinant ThrRS expressed in Escherichia coli BL21 (Codonplus DE3) assessed as positive entropy and enthalpy changes by themodynamic analysis
[11] = biological target: T1, Threonyl-tRNA synthase (Phytophthora sojae); experiment: Binding affinity to C-terminal His6-tagged Phytophthora sojae race 1 recombinant ThrRS expressed in Escherichia coli BL21 (Codonplus DE3) assessed as decrease in beta sheet content of the protein at protein to compound ratio of 1:5 by CD spectroscopy (reference value: 25.6%); design: scale not given: the % may be the effect or the level left
Pythium = experiment: Antifungal activity against Pythium species; type: functional, organism-based
[12] = biological target: T1, Threonyl-tRNA synthase (Phytophthora sojae); experiment: Binding affinity to C-terminal His6-tagged Phytophthora sojae race 1 recombinant ThrRS expressed in Escherichia coli BL21 (Codonplus DE3) assessed as Stern-Volmer quenching constant at 47 degC by fluorescence spectroscopy
Phytophthora sojae [13] = experiment: Antifungal activity against Phytophthora sojae race 1 assessed as radial growth inhibition at 0.008 ug/ml incubated at 28 degC in the dark for 6 to 8 days in presence of 0.2 to 0.6 mM L-aspargine; type: functional, organism-based
Phytophthora sojae [14] = experiment: Antifungal activity against Phytophthora sojae race 1 assessed as radial growth inhibition at 0.008 ug/ml incubated at 28 degC in the dark for 6 to 8 days in presence of 0.2 to 0.6 mM tyrosine; type: functional, organism-based
[15] = biological target: T1, Threonyl-tRNA synthase (Phytophthora sojae); experiment: Binding affinity to C-terminal His6-tagged Phytophthora sojae race 1 recombinant ThrRS expressed in Escherichia coli BL21 (Codonplus DE3) assessed as quenching rate constant at 27 degC by fluorescence spectroscopy
[16] = biological target: T1, Threonyl-tRNA synthase (Phytophthora sojae); experiment: Binding affinity to C-terminal His6-tagged Phytophthora sojae race 1 recombinant ThrRS expressed in Escherichia coli BL21 (Codonplus DE3) assessed as equilibrium binding constant by fluorescence spectroscopy
[17] = biological target: T1, Threonyl-tRNA synthase (Phytophthora sojae); experiment: Binding affinity to C-terminal His6-tagged Phytophthora sojae race 1 recombinant ThrRS expressed in Escherichia coli BL21 (Codonplus DE3) assessed as Stern-Volmer quenching constant at 27 degC by fluorescence spectroscopy
Phytophthora sojae [18] = experiment: Antifungal activity against Phytophthora sojae race 1 assessed as radial growth inhibition at 0.008 ug/ml incubated at 28 degC in the dark for 6 to 8 days in presence of 0.2 to 0.6 mM glutamine; type: functional, organism-based
[19] = biological target: T1, Threonyl-tRNA synthase (Phytophthora sojae); experiment: Binding affinity to C-terminal His6-tagged Phytophthora sojae race 1 recombinant ThrRS expressed in Escherichia coli BL21 (Codonplus DE3) assessed as increase in alpha helicity of the protein at protein to compound ratio of 1:5 by CD spectroscopy (reference value: 18.3%)

## C[C@@H]1C[C@H](C)C[C@H](C)[C@@H](O)CC(=O)O[C@H]([C@@H]2CCC[C@H]2C(=O)O)C/C=C/C=C(/C#N)[C@H](O)[C@@H](C)C1 [BORRELIDIN]
[1]
  Activity: 22.4%
[2]
  Activity: 24.4%
Threonyl-tRNA synthase
  pIC50: 5.10
Threonyl-tRNA synthase; read-out: Ki(app)
  pKi: 5.00
[3]
  KSV: 1.33 ×10⁴ /M
[4]
  Kq: 1.23 ×10¹² L/mol/s
Phytophthora sojae [5]
  growth inhibition (GI): inactive
Phytophthora sojae [6]
  growth inhibition (GI): Active
[7]
  Activity: Active
[8]
  Kq: 1.33 ×10¹² L/mol/s
[9]
  Activity: Active
[10]
  Activity: Active
[11]
  Activity: 21.8%
Pythium
  EC50: 0.01 µg/mL (≈ 0.0204 µM)
[12]
  KSV: 1.23 ×10⁴ /M
Phytophthora sojae [13]
  growth inhibition (GI): Active
Phytophthora sojae [14]
  growth inhibition (GI): Active
[15]
  Kq: 1.54 ×10¹² L/mol/s
[16]
  KA: 2.55 ×10⁵ /M
[17]
  KSV: 1.54 ×10⁴ /M
Phytophthora sojae [18]
  growth inhibition (GI): Active
[19]
  Activity: 25.7%
